These are literature values, as cited in patent US20120095087A1, “ENHANCED PRODUCTS BY SUSTAINABLE PROCESSES FOR MEDICINAL USE” (priority 2010, published 2012).

One series deals with gene ID1. As to conditions: in vitro.
The subject of another series is cancer cell growth. As to conditions: low potency in non-cancer cells.
In the next series the target is GPR55 (Homo sapiens, UniProt Q9Y2T6). As to conditions: putative new cannabinoid receptor.
The conditions of series [1]: animal tests.
The target of another series is CB2 receptors (Homo sapiens, UniProt P34972).
Sequence of CB2 receptors (P34972 whole entry): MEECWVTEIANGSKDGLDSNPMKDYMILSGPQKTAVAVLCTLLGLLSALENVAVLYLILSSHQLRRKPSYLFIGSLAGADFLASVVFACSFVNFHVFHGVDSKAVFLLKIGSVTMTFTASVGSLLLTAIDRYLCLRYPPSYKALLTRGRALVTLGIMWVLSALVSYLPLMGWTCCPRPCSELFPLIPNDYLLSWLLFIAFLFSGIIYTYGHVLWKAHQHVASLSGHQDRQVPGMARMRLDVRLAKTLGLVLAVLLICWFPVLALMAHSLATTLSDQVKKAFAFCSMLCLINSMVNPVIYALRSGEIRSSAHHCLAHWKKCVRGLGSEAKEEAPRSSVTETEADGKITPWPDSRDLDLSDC
A further series addresses T1, 5-HT1A receptor (Homo sapiens, UniProt P08908).
T1 sequence (P08908 1-422): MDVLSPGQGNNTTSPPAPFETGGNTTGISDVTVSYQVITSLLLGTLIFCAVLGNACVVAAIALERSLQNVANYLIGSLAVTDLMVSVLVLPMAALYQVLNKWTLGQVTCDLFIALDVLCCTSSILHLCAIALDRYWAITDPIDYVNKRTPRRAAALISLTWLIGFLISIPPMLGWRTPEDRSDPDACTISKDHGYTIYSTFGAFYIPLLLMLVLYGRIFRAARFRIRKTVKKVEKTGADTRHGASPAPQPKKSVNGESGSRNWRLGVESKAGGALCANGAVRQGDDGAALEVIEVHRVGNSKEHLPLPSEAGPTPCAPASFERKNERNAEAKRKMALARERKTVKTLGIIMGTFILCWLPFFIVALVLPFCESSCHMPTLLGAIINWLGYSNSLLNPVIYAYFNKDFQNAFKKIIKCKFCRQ

Sequence of GPR55 (Q9Y2T6 whole entry, species assumed): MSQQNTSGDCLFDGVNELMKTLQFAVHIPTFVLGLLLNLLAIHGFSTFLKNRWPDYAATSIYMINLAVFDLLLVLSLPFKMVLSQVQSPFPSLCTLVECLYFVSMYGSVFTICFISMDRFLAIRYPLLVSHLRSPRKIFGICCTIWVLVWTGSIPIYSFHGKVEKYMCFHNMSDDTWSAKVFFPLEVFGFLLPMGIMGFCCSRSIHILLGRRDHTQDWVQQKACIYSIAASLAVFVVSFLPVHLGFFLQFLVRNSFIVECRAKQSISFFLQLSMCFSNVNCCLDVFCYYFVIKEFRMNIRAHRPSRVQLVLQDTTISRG

In the case of `CCCCCCC(C)(C)c1cc(O)c2c(c1)OC(C)(C)[C@@H]1CC=C(CO)C[C@@H]21` [HU-210], the “potency relative to THC” value was “about 100 times”.
Consider `C=C(C)[C@@H]1CCC(C)=C[C@H]1c1c(O)cc(CCCCC)cc1O` [Cannabidiol, cannabidiol], for which the “activity of the gene ID1” value in the series with gene ID1 is listed as “downregulates”. Also, the cancer cell growth result with cancer cell growth is “inhibit cancer cell growth”. In addition, at GPR55, the “action at GPR55” value is “antagonist”. In addition, the sedative effects result in series [1] is reported as “sedative effects”. Moreover, the “affinity for CB2 receptors” value at CB2 receptors is reported as “no affinity”. Besides, on 5-HT1A receptor, the “action at 5-HT1A receptor” value is reported as “agonist”.
